Measured values as given in ChEMBL document CHEMBL1201862, “PubChem BioAssay data set” (2004).
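How tested: cells in 96-well plates exposed to compound for 48 hours at five concentrations. GI50 marks 50% less growth.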 The source made the active and inactive calls. Rule as the data show it: active = GI50 up to about 1.1 µM and inactive = higher.

Assays:
Assay in all cases: growth of human tumour cells (NCI), 48 h
786-0 = test system: 786-0
COLO 205 = test system: COLO 205
HCT-15 = test system: HCT-15
HOP-62 = test system: HOP-62
HOP-92 = test system: HOP-92
HT-29 = test system: HT-29
Hs-578T = test system: Hs-578T
IGROV-1 = test system: IGROV-1
KM12 = test system: KM12
LOX IMVI = test system: LOX IMVI
MDA-MB-435 = test system: MDA-MB-435
MOLT-4 = test system: MOLT-4
NCI-H522 = test system: NCI-H522
OVCAR-5 = test system: OVCAR-5
PC-3 = test system: PC-3
RPMI-8226 = test system: RPMI-8226
SN12C = test system: SN12C
T47D = test system: T47D
TK-10 = test system: TK-10
Malme-3M = test system: Malme-3M

COC(=O)c1ccc(CCC2=CC(=O)C=CC2=O)cc1
GI50 (786-0): 2.41 µM (inactive)
GI50 (COLO 205): 7.03 µM (inactive)
GI50 (HCT-15): 5.52 µM
GI50 (HOP-62): 19.1 µM (inactive)
GI50 (HOP-92): 4.43 µM (inactive)
GI50 (HT-29): 23.1 µM (inactive)
GI50 (Hs-578T): 24.8 µM (inactive)
GI50 (IGROV-1): 14.6 µM (inactive)
GI50 (KM12): 11.9 µM (inactive)
GI50 (LOX IMVI): 6.4 µM (inactive)
GI50 (MDA-MB-435): 11.7 µM (inactive)
GI50 (MOLT-4): 1.63 µM (inactive)
GI50 (NCI-H522): 1.62 µM (inactive)
GI50 (OVCAR-5): 18.2 µM (inactive)
GI50 (PC-3): 12.1 µM (inactive)
GI50 (RPMI-8226): 1.8 µM (inactive)
GI50 (SN12C): 24.5 µM (inactive)
GI50 (T47D): 2.94 µM (inactive)
GI50 (TK-10): 19 µM (inactive)

N=C(CSSCC(=N)NCC12CC3CC(CC(C3)C1)C2)NCC12CC3CC(CC(C3)C1)C2
GI50 (786-0): 29.9 µM (inactive)
GI50 (COLO 205): 19.2 µM (inactive)
GI50 (HCT-15): 12.2 µM
GI50 (HOP-62): 32.1 µM (inactive)
GI50 (HOP-92): 16.3 µM (inactive)
GI50 (HT-29): 13.6 µM (inactive)
GI50 (Hs-578T): 23.4 µM (inactive)
GI50 (IGROV-1): 15.9 µM (inactive)
GI50 (KM12): 14.1 µM (inactive)
GI50 (MDA-MB-435): 13.8 µM (inactive)
GI50 (MOLT-4): 3.1 µM (inactive)
GI50 (Malme-3M): 16.8 µM (inactive)
GI50 (NCI-H522): 15.1 µM (inactive)
GI50 (OVCAR-5): 17.7 µM (inactive)
GI50 (PC-3): 14.9 µM (inactive)
GI50 (RPMI-8226): 2.33 µM (inactive)
GI50 (SN12C): 15.7 µM (inactive)
GI50 (T47D): 17.9 µM (inactive)
GI50 (TK-10): 18.8 µM (inactive)

COC(=O)[C@H]1CO[C@@H](C(C)(C)C)N1C(=O)N1C=CC(=O)C[C@@H]1C
GI50 (786-0): > 100 µM (inactive)
GI50 (COLO 205): > 100 µM (inactive)
GI50 (HOP-62): > 100 µM (inactive)
GI50 (HOP-92): > 100 µM (inactive)
GI50 (HT-29): > 100 µM (inactive)
GI50 (Hs-578T): > 100 µM (inactive)
GI50 (IGROV-1): > 100 µM (inactive)
GI50 (KM12): > 100 µM (inactive)
GI50 (LOX IMVI): > 100 µM (inactive)
GI50 (MDA-MB-435): > 100 µM (inactive)
GI50 (Malme-3M): > 100 µM (inactive)
GI50 (NCI-H522): > 100 µM (inactive)
GI50 (OVCAR-5): > 100 µM (inactive)
GI50 (PC-3): > 100 µM (inactive)
GI50 (RPMI-8226): > 100 µM (inactive)
GI50 (SN12C): > 100 µM (inactive)
GI50 (T47D): > 100 µM (inactive)
GI50 (TK-10): > 100 µM (inactive)

O=C1NC(O)CCN1C1CC(O)C(CO)O1 (centres undefined)
GI50 (786-0): > 100 µM (inactive)
GI50 (COLO 205): > 100 µM (inactive)
GI50 (HCT-15): > 100 µM
GI50 (HOP-62): > 100 µM (inactive)
GI50 (HOP-92): > 100 µM (inactive)
GI50 (Hs-578T): > 100 µM (inactive)
GI50 (IGROV-1): > 100 µM (inactive)
GI50 (KM12): 74.1 µM (inactive)
GI50 (LOX IMVI): > 100 µM (inactive)
GI50 (MDA-MB-435): > 100 µM (inactive)
GI50 (MOLT-4): > 100 µM (inactive)
GI50 (Malme-3M): > 100 µM (inactive)
GI50 (NCI-H522): > 100 µM (inactive)
GI50 (OVCAR-5): > 100 µM (inactive)
GI50 (PC-3): > 100 µM (inactive)
GI50 (RPMI-8226): > 100 µM (inactive)
GI50 (SN12C): > 100 µM (inactive)
GI50 (T47D): > 100 µM (inactive)
GI50 (TK-10): > 100 µM (inactive)

COC1CC(N)C(O)C(C)O1 (centres undefined)
GI50 (786-0): > 100 µM (inactive)
GI50 (COLO 205): > 100 µM (inactive)
GI50 (HCT-15): > 100 µM
GI50 (HOP-62): > 100 µM (inactive)
GI50 (HOP-92): > 100 µM (inactive)
GI50 (HT-29): > 100 µM (inactive)
GI50 (Hs-578T): > 100 µM (inactive)
GI50 (IGROV-1): > 100 µM (inactive)
GI50 (KM12): > 100 µM (inactive)
GI50 (LOX IMVI): > 100 µM (inactive)
GI50 (MDA-MB-435): > 100 µM (inactive)
GI50 (MOLT-4): > 100 µM (inactive)
GI50 (Malme-3M): > 100 µM (inactive)
GI50 (NCI-H522): > 100 µM (inactive)
GI50 (OVCAR-5): > 100 µM (inactive)
GI50 (PC-3): > 100 µM (inactive)
GI50 (RPMI-8226): > 100 µM (inactive)
GI50 (SN12C): > 100 µM (inactive)
GI50 (T47D): > 100 µM (inactive)

COc1ccc(-c2nc3cc(C(F)(F)F)ccc3n2CC2CCCN3CCCCC23)cc1 (centres undefined)
GI50 (786-0): 19.5 µM (inactive)
GI50 (HCT-15): 15.7 µM
GI50 (HOP-62): 18.7 µM (inactive)
GI50 (HOP-92): 14.8 µM (inactive)
GI50 (HT-29): 13.3 µM (inactive)
GI50 (Hs-578T): 15.5 µM (inactive)
GI50 (IGROV-1): 13.9 µM (inactive)
GI50 (KM12): 19.4 µM (inactive)
GI50 (LOX IMVI): 15 µM (inactive)
GI50 (MDA-MB-435): 15.8 µM (inactive)
GI50 (MOLT-4): 12.7 µM (inactive)
GI50 (NCI-H522): 15.6 µM (inactive)
GI50 (OVCAR-5): 27.1 µM (inactive)
GI50 (PC-3): 13.6 µM (inactive)
GI50 (RPMI-8226): 14.2 µM (inactive)
GI50 (T47D): 18.5 µM (inactive)
GI50 (TK-10): 16.6 µM (inactive)

C=CCSC1=N/C(=C\c2ccc(Cl)cc2)C(=O)N1CC=C
GI50 (786-0): 35.7 µM (inactive)
GI50 (COLO 205): 33.3 µM (inactive)
GI50 (HCT-15): 28.2 µM
GI50 (HOP-62): 41.9 µM (inactive)
GI50 (HOP-92): 22.1 µM (inactive)
GI50 (HT-29): 30.5 µM (inactive)
GI50 (Hs-578T): 68.7 µM (inactive)
GI50 (IGROV-1): 53.8 µM (inactive)
GI50 (KM12): 24.9 µM (inactive)
GI50 (LOX IMVI): 42.9 µM (inactive)
GI50 (MDA-MB-435): 28.8 µM (inactive)
GI50 (NCI-H522): 23 µM (inactive)
GI50 (OVCAR-5): 63.8 µM (inactive)
GI50 (PC-3): 20 µM (inactive)
GI50 (RPMI-8226): 17.4 µM (inactive)
GI50 (SN12C): 34.3 µM (inactive)
GI50 (T47D): 23.4 µM (inactive)
GI50 (TK-10): 55.7 µM (inactive)

CC(=O)Nc1ccc(NC(=O)c2c(Cl)c(Cl)c(Cl)c(Cl)c2-c2nc3ccccc3[nH]2)cc1
GI50 (786-0): 49.1 µM (inactive)
GI50 (COLO 205): 17.6 µM (inactive)
GI50 (HCT-15): 85.1 µM
GI50 (HOP-62): 53.3 µM (inactive)
GI50 (HOP-92): 15.7 µM (inactive)
GI50 (HT-29): 35.7 µM (inactive)
GI50 (Hs-578T): 77.4 µM (inactive)
GI50 (IGROV-1): 20.5 µM (inactive)
GI50 (KM12): 28.2 µM (inactive)
GI50 (MDA-MB-435): 35.1 µM (inactive)
GI50 (MOLT-4): 21.5 µM (inactive)
GI50 (Malme-3M): 51.4 µM (inactive)
GI50 (NCI-H522): 36.7 µM (inactive)
GI50 (OVCAR-5): 67.1 µM (inactive)
GI50 (PC-3): 44.7 µM (inactive)
GI50 (RPMI-8226): 23 µM (inactive)
GI50 (SN12C): 35.4 µM (inactive)
GI50 (T47D): 25.7 µM (inactive)

O=C(O)/C(=C/c1ccccc1)c1ccccc1
GI50 (786-0): > 100 µM (inactive)
GI50 (HCT-15): > 100 µM
GI50 (HOP-62): > 100 µM (inactive)
GI50 (HOP-92): 46.6 µM (inactive)
GI50 (HT-29): > 100 µM (inactive)
GI50 (Hs-578T): > 100 µM (inactive)
GI50 (IGROV-1): > 100 µM (inactive)
GI50 (KM12): > 100 µM (inactive)
GI50 (LOX IMVI): > 100 µM (inactive)
GI50 (MDA-MB-435): > 100 µM (inactive)
GI50 (MOLT-4): > 100 µM (inactive)
GI50 (Malme-3M): > 100 µM (inactive)
GI50 (NCI-H522): > 100 µM (inactive)
GI50 (OVCAR-5): > 100 µM (inactive)
GI50 (PC-3): > 100 µM (inactive)
GI50 (RPMI-8226): > 100 µM (inactive)
GI50 (SN12C): > 100 µM (inactive)
GI50 (T47D): > 100 µM (inactive)
GI50 (TK-10): > 100 µM (inactive)

COc1cc(C2SC(C)C(=O)N2c2ccc(-c3csc(NS(=O)(=O)c4ccc(Cl)c(OC)c4)n3)cc2)ccc1O (centres undefined)
GI50 (786-0): 67.3 µM (inactive)
GI50 (COLO 205): > 100 µM (inactive)
GI50 (HCT-15): 33.9 µM
GI50 (HOP-62): > 100 µM (inactive)
GI50 (HOP-92): 24.4 µM (inactive)
GI50 (HT-29): > 100 µM (inactive)
GI50 (Hs-578T): 54.1 µM (inactive)
GI50 (IGROV-1): 44.9 µM (inactive)
GI50 (KM12): 22.5 µM (inactive)
GI50 (LOX IMVI): 31.3 µM (inactive)
GI50 (MDA-MB-435): > 100 µM (inactive)
GI50 (MOLT-4): 25.1 µM (inactive)
GI50 (Malme-3M): 27.8 µM (inactive)
GI50 (NCI-H522): 21.7 µM (inactive)
GI50 (OVCAR-5): > 100 µM (inactive)
GI50 (PC-3): > 100 µM (inactive)
GI50 (SN12C): 20.6 µM (inactive)
GI50 (T47D): 40.5 µM (inactive)
GI50 (TK-10): > 100 µM (inactive)

CCCOC(=O)NC(C)C(=O)NC(CCC(=O)NC(CCCC(N)C(=O)O)C(=O)NC(C)C(=O)O)C(=O)O (centres undefined)
GI50 (786-0): 30.2 µM (inactive)
GI50 (COLO 205): 27.2 µM (inactive)
GI50 (HCT-15): 18.1 µM
GI50 (HOP-62): > 100 µM (inactive)
GI50 (HOP-92): 29.5 µM (inactive)
GI50 (HT-29): 19.5 µM (inactive)
GI50 (Hs-578T): 15.7 µM (inactive)
GI50 (IGROV-1): 62.2 µM (inactive)
GI50 (KM12): 14.4 µM (inactive)
GI50 (LOX IMVI): 16.6 µM (inactive)
GI50 (MDA-MB-435): 56.8 µM (inactive)
GI50 (MOLT-4): 23 µM (inactive)
GI50 (NCI-H522): 26.8 µM (inactive)
GI50 (OVCAR-5): 41.9 µM (inactive)
GI50 (PC-3): 23.9 µM (inactive)
GI50 (RPMI-8226): 12.3 µM (inactive)
GI50 (SN12C): 50.8 µM (inactive)
GI50 (T47D): 18.3 µM (inactive)
GI50 (TK-10): 69.8 µM (inactive)
